Source: patent US8975417B2, “Pyrazolopyrrolidine derivatives and their use in the treatment of disease” (Novartis AG, priority 2013, dated 2015)
pIC50: −log10 of the molar value.

What was measured:
Conditions in all cases: biochemical
[1] = target: His-Brd2(60-472) (Homo sapiens (Human), UniProt P25440); experiment: TR-FRET in-vitro binding assay for BRD2
Procedure: (§1) TR-FRET In-Vitro Binding Assays for BRD2, BRD3, and BRD4:
(§2) All assays were performed in 384-well microtiter plates. Each assay plate contained 8-point serial dilutions for 40 test compounds, plus 16 high- and 16 low controls. Liquid handling and incubation steps were done on an Innovadyne Nanodrop Express equipped with a robotic arm (Thermo CatX, Perkin Elmer/Caliper Twister II) and an incubator (Liconic STX40, Thermo Cytomat 2C450). The assay plates were prepared by addition of 50 nl per well of compound solution in 90% DMSO HummingBird nanodispenser (Zinsser Analytic). The assay was started by stepwise addition of 4.5 μL per well of bromo domain protein (50 mM HEPES, pH 7.5, 0.005% Tween20, 0.1% BSA, 50 mM NaCl, 45 nM His-Brd2(60-472) or 45 nM His-Brd3(20-477) or 45 nM His-Brd4(44-477) all proteins produced in-house) and 4.5 μL per well of peptide solution (50 mM HEPES, pH 7.5, 0.005% Tween20, 0.1% BSA, 50 mM NaCl, 60 nM acetyl-histone H4 (AcK 5, 8, 12, 16) (Biosyntan GmbH)). Reactions were incubated at 30° C. for 35 minutes. Subsequently 4.5 μL per well detection mix (50 mM HEPES, pH 7.5, 0.005% Tween20, 0.1% BSA, 50 mM NaCl, 3 nM Eu-labeled anti-His6 antibody, 21 nM streptavidin-allophycocyanin) were added. After minutes incubation at 30° C., plates were measured in a Perkin Elmer EnVision multilabel reader.
(§3) Test compounds were dissolved in DMSO (10 mM) and transferred into 1.4 mL flat bottom or V-shaped Matrix tubes carrying a unique 2D matrix. The stock solutions were stored at […] if not used immediately. For the test procedure the vials were defrosted and identified by a scanner whereby a working sheet was generated that guided the subsequent working steps. Compound dilutions were made in 96 well plates. This format enabled the assay of maximally […] at 8 concentrations (single points) including 4 reference compounds, if desired (known BET inhibitors from the prior art, for this and other assays of the type disclosed herein). The dilution protocol included the production of “pre-dilution plates”, “master plates” and “assay plates”.
(§4) Polypropylene 96-well plates were used as pre-dilution plates. […] All dilution steps were done on a HamiltonSTAR robot.
(§5) 30 μL of individual compound dilutions including standard compound and controls of the 4 “pre-dilution plates” were transferred into a 384-well “master plate” including the following concentrations 10000, […], 1000, 300, 100, 30, 10 and 3 μM, respectively in 90% of DMSO.
(§6) Identical “assay plates” were then prepared by pipetting 50 nL each of compound dilutions of the “master plates” into 384-well “assay plates” by means of a HummingBird 384-channel dispenser. These plates were used directly for the assay which was performed in a total volume of 13.55 μL.

[2] = target: His-CREBBP (1081-1197) bromodomain (Homo sapiens (Human), UniProt Q92793); experiment: AlphaScreen in-vitro binding assay for CREBBP
Procedure: AlphaScreen In-Vitro Binding Assay for CREBBP
In order to assess bromodomain selectivity, we set up a binding assay using the bromodomain encoded by the CREBBP gene. […] Reactions were incubated at 30° C. for 35 minutes. Subsequently 4.5 μL per well detection mix (50 mM HEPES, pH 7.5, 0.005% Tween20, 0.02% BSA, 150 mM NaCl, 45 μg/ml Ni-chelate acceptor beads, 45 μg/mL streptavidin-donor beads) (Perkin Elmer)) were added. After 60 minutes incubation at room temperature, plates were measured in a Perkin Elmer EnVision multilabel reader. IC50 values were determined from percent inhibition values at different compound concentrations by non-linear regression analysis.
as §3, §4
These plates were used directly for the assay which was performed in a total volume of 13.55 μL.

[3] = target: His-Brd3(20-477) (Homo sapiens (Human), UniProt Q15059); experiment: TR-FRET in-vitro binding assay for BRD3
Procedure: as §1, §2, §3, §4, §5, §6

[4] = target: His-Brd4(44-477) (Homo sapiens (Human), UniProt O60885); experiment: TR-FRET in-vitro binding assay for BRD4
Procedure: as §1, §2, §3, §4, §5, §6

His-CREBBP (1081-1197) bromodomain, sequence (Q92793 1081-1197): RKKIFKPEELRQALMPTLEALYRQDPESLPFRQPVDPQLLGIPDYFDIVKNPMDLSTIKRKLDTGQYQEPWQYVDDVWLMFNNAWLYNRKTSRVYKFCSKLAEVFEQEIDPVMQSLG
His-Brd3(20-477), sequence (Q15059 20-477): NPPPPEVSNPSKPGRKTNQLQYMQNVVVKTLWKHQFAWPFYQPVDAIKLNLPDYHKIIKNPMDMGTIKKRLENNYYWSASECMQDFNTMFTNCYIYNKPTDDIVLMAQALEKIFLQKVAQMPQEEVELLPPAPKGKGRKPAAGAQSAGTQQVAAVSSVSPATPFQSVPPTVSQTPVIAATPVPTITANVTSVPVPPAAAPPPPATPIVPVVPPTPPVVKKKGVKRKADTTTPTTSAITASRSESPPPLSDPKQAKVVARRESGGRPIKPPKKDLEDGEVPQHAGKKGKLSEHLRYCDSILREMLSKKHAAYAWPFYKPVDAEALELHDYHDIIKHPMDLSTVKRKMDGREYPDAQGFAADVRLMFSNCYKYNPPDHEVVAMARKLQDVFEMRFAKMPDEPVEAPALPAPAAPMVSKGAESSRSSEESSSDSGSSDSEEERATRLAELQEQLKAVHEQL
His-Brd2(60-472), sequence (P25440 60-472): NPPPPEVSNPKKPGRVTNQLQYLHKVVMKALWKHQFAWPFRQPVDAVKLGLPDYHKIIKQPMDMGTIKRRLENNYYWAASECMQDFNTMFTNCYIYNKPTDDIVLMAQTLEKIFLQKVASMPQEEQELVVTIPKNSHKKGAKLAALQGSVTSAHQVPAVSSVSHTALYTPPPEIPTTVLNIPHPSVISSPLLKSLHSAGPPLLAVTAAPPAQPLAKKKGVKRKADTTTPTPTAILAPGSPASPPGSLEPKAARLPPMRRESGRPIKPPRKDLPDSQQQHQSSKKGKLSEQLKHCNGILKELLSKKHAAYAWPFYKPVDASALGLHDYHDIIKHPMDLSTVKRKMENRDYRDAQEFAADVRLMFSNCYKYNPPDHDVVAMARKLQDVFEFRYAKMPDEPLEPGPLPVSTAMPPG

| SMILES | pIC50 [1] | pIC50 [2] | pIC50 [3] | pIC50 [4] |
| --- | --- | --- | --- | --- |
| COCc1nn(C2CC2)c2c1C(c1ccc(Cl)cc1)N(c1cc(C)c(=O)n(C)c1)C2=O (racemic) [Example 132, 4-(4-chlorophenyl)-1-cyclopropyl-5-(1,5-dimethyl-6-oxo-1,6-dihydropyridin-3-yl)-3-(methoxymethyl)-4,5-dihydropyrrolo[3,4-c]pyrazol-6(1H)-one] | 7.09 | 5.32 | 7.05 | 7.17 |
| Cc1[nH]nc2c1C(c1ccc(Cl)cc1)N(c1cc(Cl)c(=O)n(C)c1)C2=O (stereo not drawn) [Example 5, 5-(5-chloro-1-methyl-6-oxo-1,6-dihydropyridin-3-yl)-4-(4-chlorophenyl)-3-methyl-4,5-dihydropyrrolo[3,4-c]pyrazol-6(2H)-one] | 6.14 | 5.25 | 6.43 | 6.44 |
| Cc1c2c(nn1C)C(=O)N(c1cc(Cl)c(=O)n(C)c1)C2c1ccc(Cl)cc1 (stereo not drawn) [Example 6, 5-(5-chloro-1-methyl-6-oxo-1,6-dihydropyridin-3-yl)-4-(4-chlorophenyl)-2,3-dimethyl-4,5-dihydropyrrolo[3,4-c]pyrazol-6(2H)-one] | 6.46 | 5.46 | 6.74 | 6.72 |
| Cc1noc2ccc(N3C(=O)c4nn(C)c(C)c4C3c3ccc(Cl)cc3)cc12 (stereo not drawn) [Example 33, 4-(4-chlorophenyl)-2,3-dimethyl-5-(3-methylbenzo[d]isoxazol-5-yl)-4,5-dihydropyrrolo[3,4-c]pyrazol-6(2H)-one] | 5.92 | < 4.43 | 6.04 | 6.15 |
| CC(C)n1ncc2c1C(=O)N(c1cc(Cl)c(=O)n(C)c1)C2c1ccc(Cl)cc1 (stereo not drawn) [Example 38, 5-(5-chloro-1-methyl-6-oxo-1,6-dihydropyridin-3-yl)-4-(4-chlorophenyl)-1-isopropyl-4,5-dihydropyrrolo[3,4-c]pyrazol-6(1H)-one] | 7.31 | 5.72 | 7.12 | 7.21 |
| Cc1cc(N2C(=O)c3nn(C(C)C)cc3C2c2ccc(Cl)cc2)cn(C)c1=O (stereo not drawn) [Example 41, 4-(4-chlorophenyl)-5-(1,5-dimethyl-6-oxo-1,6-dihydropyridin-3-yl)-2-isopropyl-4,5-dihydropyrrolo[3,4-c]pyrazol-6(2H)-one] | 7.12 | 6.42 | 7.07 | 7.02 |
| Cc1cc(N2C(=O)c3nn(C4CC4)c(C(F)(F)F)c3C2c2ccc(Cl)cc2)cn(C)c1=O (stereo not drawn) [Example 43, 4-(4-chlorophenyl)-2-cyclopropyl-5-(1,5-dimethyl-6-oxo-1,6-dihydropyridin-3-yl)-3-(trifluoromethyl)-4,5-dihydropyrrolo[3,4-c]pyrazol-6(2H)-one] | 7.00 | 6.18 | 6.96 | 6.92 |
| Cc1nn(C2CC2)c2c1C(c1ccc(Cl)cc1)N(c1cc(C)c3nnn(C)c3c1)C2=O (stereo not drawn) [Example 85, 4-(4-chlorophenol)-1-cyclopropyl-5-(1,4-dimethyl-1H-benzo[d][1,2,3]triazol-6-yl)-3-methyl-4,5-dihydropyrrolo[3,4-c]pyrazol-6(1H)-one] | 7.62 | 5.08 | 7.80 | 7.85 |
| Cc1nn(C2CC2)c2c1[C@@H](c1ccc(F)cc1F)N(c1cc(C)c3nnc(C)n3c1)C2=O [Example 188, (S)-1-cyclopropyl-4-(2,4-difluorophenyl)-5-(3,8-dimethyl-[1,2,4]triazolo[4,3-a]pyridin-6-yl)-3-methyl-4,5-dihydropyrrolo[3,4-c]pyrazol-6(1H)-one] | 7.39 | 4.72 | 7.40 | 7.51 |
| Cc1nn(C2CC2)c2c1[C@@H](c1ccc(Cl)cc1F)N(c1cc(C)c3nnc(C)n3c1)C2=O [Example 190, (S)-4-(4-chloro-2-fluorophenyl)-1-cyclopropyl-5-(3,8-dimethyl-[1,2,4]triazolo[4,3-a]pyridin-6-yl)-3-methyl-4,5-dihydropyrrolo[3,4-c]pyrazol-6(1H)-one] | 7.55 | 4.92 | 7.60 | 7.66 |

More lines, now with the values ahead:

| pIC50 [1] | pIC50 [2] | pIC50 [3] | pIC50 [4] | SMILES |
| --- | --- | --- | --- | --- |
| 6.64 | 5.23 | 6.82 | 6.82 | Cc1nn(C2CC2)c2c1C(c1ccc(Cl)cc1)N(c1cc(Cl)c(=O)n(C)c1)C2=O (racemic) [Example 24, 5-(5-chloro-1-methyl-6-oxo-1,6-dihydropyridin-3-yl)-4-(4-chlorophenyl)-1-cyclopropyl-3-methyl-4,5-dihydropyrrolo[3,4-c]pyrazol-6(1H)-one] |
| 6.74 | 5.89 | 7.01 | 6.85 | Cc1c2c(nn1C1CC1)C(=O)N(c1cc(Cl)c(=O)n(C)c1)C2c1ccc(Cl)cc1 (stereo not drawn) [Example 17, 5-(5-chloro-1-methyl-6-oxo-1,6-dihydropyridin-3-yl)-4-(4-chlorophenyl)-2-cyclopropyl-3-methyl-4,5-dihydropyrrolo[3,4-c]pyrazol-6(2H)-one] |
| 6.89 | 5.96 | 7.11 | 7.06 | Cc1cc(N2C(=O)c3nn(C4CC4)c(C)c3C2c2ccc(Cl)cc2)cn(C)c1=O (stereo not drawn) [Example 20, 4-(4-chlorophenyl)-2-cyclopropyl-5-(1,5-dimethyl-6-oxo-1,6-dihydropyridin-3-yl)-3-methyl-4,5-dihydropyrrolo[3,4-c]pyrazol-6(2H)-one] |
| 6.49 | 5.48 | 6.80 | 6.85 | Cc1cc(N2C(=O)c3nn(C)c(C)c3C2c2ccc(Cl)cc2)cn(C)c1=O (stereo not drawn) [Example 28, 4-(4-chlorophenyl)-5-(1,5-dimethyl-6-oxo-1,6-dihydropyridin-3-yl)-2,3-dimethyl-4,5-dihydropyrrolo[3,4-c]pyrazol-6(2H)-one] |
| 6.85 | 5.92 | 6.85 | 6.77 | Cn1cc(N2C(=O)c3nn(C4CC4)cc3C2c2ccc(Cl)cc2)cc(Cl)c1=O (stereo not drawn) [Example 37, 5-(5-chloro-1-methyl-6-oxo-1,6-dihydropyridin-3-yl)-4-(4-chlorophenyl)-2-cyclopropyl-4,5-dihydropyrrolo[3,4-c]pyrazol-6(2H)-one] |
| 6.80 | 6.13 | 6.82 | 6.66 | Cn1cc(N2C(=O)c3nn(C4CC4)c(C(F)(F)F)c3C2c2ccc(Cl)cc2)cc(Cl)c1=O (stereo not drawn) [Example 40, 5-(5-chloro-1-methyl-6-oxo-1,6-dihydropyridin-3-yl)-4-(4-chlorophenyl)-2-cyclopropyl-3-(trifluoromethyl)-4,5-dihydropyrrolo[3,4-c]pyrazol-6(2H)-one] |
| 7.04 | 6.35 | 7.05 | 7.00 | CC(C)n1cc2c(n1)C(=O)N(c1cc(Cl)c(=O)n(C)c1)C2c1ccc(Cl)cc1 (stereo not drawn) [Example 42, 5-(5-chloro-1-methyl-6-oxo-1,6-dihydropyridin-3-yl)-4-(4-chlorophenyl)-2-isopropyl-4,5-dihydropyrrolo[3,4-c]pyrazol-6(2H)-one] |
| < 5.17 | < 5.29 | < 5.17 | < 5.17 | Cc1nn(C2CC2)c2c1[C@H](c1ccc(Cl)cc1)N(c1cc(C)c(=O)n(C)c1)C2=O [Example 48, (S)-4-(4-chlorophenyl)-1-cyclopropyl-5-(1,5-dimethyl-6-oxo-1,6-dihydropyridin-3-yl)-3-methyl-4,5-dihydropyrrolo[3,4-c]pyrazol-6(1H)-one] |
